Laboratory results from PubChem BioAssay AID330 (DTP/NCI, 2004).
Where “and” joins values, the source holds several entries; their conditions need not be identical. Equal entries are not always repeated. Toxic doses and inconclusive results are not listed.

Tested on: P388 leukemia ip, CD2F1 mice, survival T/C
Experiment: NCI In Vivo Anticancer Drug Screen. Data for tumor model P388 Leukemia (intraperitoneal) in CD2F1 (CDF1) mice
Settings: endpoint: median survival time, higher = longer survival
In short: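 Mice carrying the transplanted tumor received test compound or vehicle. Survival was recorded in each group, and the value is the treated-group measurement divided by that of the vehicle-treated control group.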

[1] = dose: 50.0 mg/kg/injection, schedule: Q01DX009 (ip), vehicle: Klucel (hydroxypropylcellulose) (HPC)
[2] = dose: 100.0 mg/kg/injection, schedule: Q01DX009 (ip), vehicle: Klucel (hydroxypropylcellulose) (HPC)
[3] = dose: 6.25 mg/kg/injection, schedule: Q01DX005 (ip), vehicle: Klucel (hydroxypropylcellulose) (HPC)
[4] = dose: 12.5 mg/kg/injection, schedule: Q01DX005 (ip), vehicle: Klucel (hydroxypropylcellulose) (HPC)
[5] = dose: 12.5 mg/kg/injection, schedule: Q01DX009 (ip), vehicle: Klucel (hydroxypropylcellulose) (HPC)
[6] = dose: 25.0 mg/kg/injection, schedule: Q01DX009 (ip), vehicle: Klucel (hydroxypropylcellulose) (HPC)
[7] = dose: 15.0 mg/kg/injection, schedule: Q01DX005 (ip), vehicle: Klucel (hydroxypropylcellulose) (HPC)
[8] = dose: 30.0 mg/kg/injection, schedule: Q01DX005 (ip), vehicle: Klucel (hydroxypropylcellulose) (HPC)
[9] = dose: 60.0 mg/kg/injection, schedule: Q01DX005 (ip), vehicle: Klucel (hydroxypropylcellulose) (HPC)
[10] = dose: 50.0 mg/kg/injection, schedule: Q01DX009 (ip), vehicle: saline
[11] = dose: 100.0 mg/kg/injection, schedule: Q01DX009 (ip), vehicle: saline
[12] = dose: 200.0 mg/kg/injection, schedule: Q01DX009 (ip), vehicle: saline
[13] = dose: 100.0 mg/kg/injection, schedule: Q01DX009 (ip), vehicle: saline with Tween-80
[14] = dose: 200.0 mg/kg/injection, schedule: Q01DX009 (ip), vehicle: saline with Tween-80
[15] = dose: 12.5 mg/kg/injection, schedule: Q01DX009 (ip), vehicle: saline with Tween-80
[16] = dose: 25.0 mg/kg/injection, schedule: Q01DX009 (ip), vehicle: saline with Tween-80
[17] = dose: 50.0 mg/kg/injection, schedule: Q01DX009 (ip), vehicle: saline with Tween-80
[18] = dose: 12.5 mg/kg/injection, schedule: Q01DX009 (ip), vehicle: saline
[19] = dose: 25.0 mg/kg/injection, schedule: Q01DX009 (ip), vehicle: saline

With `CCN(CC)C(=S)Oc1cc(C)nc(SCC(=O)c2ccc(Cl)cc2)n1` the T/C [1] was 108 % of control, the T/C [2] was 100 % of control and the T/C (dose: 200.0 mg/kg/injection, schedule: Q01DX009 (ip), vehicle: Klucel (hydroxypropylcellulose) (HPC)) was 103 % of control.
With `O=C1CC2C(O)OC(O)C(C1)N2C(=O)OCC(Cl)(Cl)Cl` (configuration not stated) the T/C [3] was 106 % of control, the T/C [4] was 106 % of control and the T/C (dose: 25.0 mg/kg/injection, schedule: Q01DX005 (ip), vehicle: Klucel (hydroxypropylcellulose) (HPC)) was 114 % of control.
For `CC1(C)CCCC(C)(C2CCC3(C)C2C(O)CC2C4(C)CCC(O)C(C)(C)C4C(O)CC23C)O1` (configuration not stated), the T/C (dose: 6.25 mg/kg/injection, schedule: Q01DX009 (ip), vehicle: Klucel (hydroxypropylcellulose) (HPC)) was 101 % of control, the T/C [5] was 99 % of control and the T/C [6] was 96 % of control. For the same compound, the T/C [1] was 92 % of control and the T/C [2] was 92 % of control.
With `N#C/C(=N\Nc1ccc(Cl)cc1)C(=O)C1CC1` the T/C [7] was 105 % of control, the T/C [8] was 98 % of control and the T/C [9] was 99 % of control and 91 % of control.
In the case of `C[C@@H]1C[C@@H]2OC(=O)[C@]3(C)[C@H]2[C@@H](OC3(C)O)[C@]2(C)C(=O)C=C[C@@H]12` (some centres not stated), the T/C (dose: 4.25 mg/kg/injection, schedule: Q01DX009 (ip), vehicle: Klucel (hydroxypropylcellulose) (HPC)) is reported as 104 % of control, the T/C (dose: 8.5 mg/kg/injection, schedule: Q01DX009 (ip), vehicle: Klucel (hydroxypropylcellulose) (HPC)) is reported as 102 % of control and 109 % of control and the T/C (dose: 17.0 mg/kg/injection, schedule: Q01DX009 (ip), vehicle: Klucel (hydroxypropylcellulose) (HPC)) is reported as 119 % of control and 120 % of control.
`C=COC(=O)C(Cc1ccc([N+](=O)[O-])cc1)NC(=O)OCc1ccccc1` (configuration not stated) was tested, and the T/C (dose: 100.0 mg/kg/injection, schedule: Q04DX002 (ip), vehicle: Klucel (hydroxypropylcellulose) (HPC)) was 97 % of control, the T/C (dose: 200.0 mg/kg/injection, schedule: Q04DX002 (ip), vehicle: Klucel (hydroxypropylcellulose) (HPC)) was 100 % of control and the T/C (dose: 400.0 mg/kg/injection, schedule: Q04DX002 (ip), vehicle: Klucel (hydroxypropylcellulose) (HPC)) was 92 % of control.
`COc1cc([N+](=O)[O-])cc2c1OC1(C=C2)Oc2ccccc2N1C` (configuration not stated) was tested, and the T/C [7] was 103 % of control, the T/C [8] was 100 % of control and the T/C [9] was 94 % of control. The T/C (dose: 120.0 mg/kg/injection, schedule: Q01DX005 (ip), vehicle: Klucel (hydroxypropylcellulose) (HPC)) was 100 % of control.
In the case of `O=c1c2ccccc2c(=O)n2n1CCC2O` (configuration not stated), the T/C [10] is reported as 108 % of control, the T/C [11] is reported as 101 % of control and the T/C [12] is reported as 101 % of control.
`[Cl][Pt+2][Cl].[NH-]c1ccccc1[NH-]` was tested, and the T/C (dose: 6.25 mg/kg/injection, schedule: Q04DX002 (ip), vehicle: saline with Tween-80) was 163 % of control, the T/C (dose: 12.5 mg/kg/injection, schedule: Q04DX002 (ip), vehicle: saline with Tween-80) was 193 % of control and the T/C (dose: 12.5 mg/kg/injection, schedule: Q04DX002 (ip), vehicle: saline) was 167 % of control. For the same compound, the T/C (dose: 25.0 mg/kg/injection, schedule: Q04DX002 (ip), vehicle: saline with Tween-80) was 110 % of control.
With `C(=N\n1cnnc1)/c1ccccc1/C=N/n1cnnc1` the T/C [13] was 100 % of control, the T/C [14] was 90 % of control and the T/C (dose: 400.0 mg/kg/injection, schedule: Q01DX009 (ip), vehicle: saline with Tween-80) was 100 % of control.
In the case of `CCCCCC(=O)O[C@H]1CC[C@@H]2[C@H]1[C@@H]1CCC=C1C2(C)C`, the T/C (dose: 100.0 mg/kg/injection, schedule: Q01DX001 (ip), vehicle: Klucel (hydroxypropylcellulose) (HPC)) is reported as 97 % of control, the T/C (dose: 200.0 mg/kg/injection, schedule: Q01DX001 (ip), vehicle: Klucel (hydroxypropylcellulose) (HPC)) is reported as 99 % of control and the T/C (dose: 400.0 mg/kg/injection, schedule: Q01DX001 (ip), vehicle: Klucel (hydroxypropylcellulose) (HPC)) is reported as 100 % of control.
`CC(N)C(=O)NC(C(=O)NC1C(O)OC(CO)C(O)C1O)C(C)C` (configuration not stated) was tested, and the T/C (dose: 60.0 mg/kg/injection, schedule: Q01DX005 (ip), vehicle: saline) was 99 % of control, the T/C (dose: 120.0 mg/kg/injection, schedule: Q01DX005 (ip), vehicle: saline) was 104 % of control and the T/C (dose: 240.0 mg/kg/injection, schedule: Q01DX005 (ip), vehicle: saline) was 97 % of control.
For `Nc1nc[nH]c(=O)c1NC(=O)c1cccc([N+](=O)[O-])c1`, the T/C [15] was 101 % of control, the T/C [16] was 100 % of control and the T/C [17] was 96 % of control. For the same compound, the T/C [13] was 99 % of control.
In the case of `c1ccc(C23CN(Cc4ccccc42)Cc2ccccc23)cc1`, the T/C (dose: 100.0 mg/kg/injection, schedule: Q01DX001 (ip), vehicle: saline with Tween-80) is reported as 95 % of control and the T/C (dose: 200.0 mg/kg/injection, schedule: Q01DX001 (ip), vehicle: saline with Tween-80) is reported as 88 % of control.
For `CCC(=O)NC1=C(N2CC2C)C(=O)C(NC(=O)CC)=C(N2CC2C)C1=O` (configuration not stated), the T/C [5] was 210 % of control, the T/C [18] was 164 % of control and the T/C [6] was 103 % of control. The T/C [19] was 117 % of control.
With `[Br][Sn]([Br])([S]c1ccccn1)[S]c1ccccn1` the T/C [15] was 111 % of control, the T/C [16] was 103 % of control and the T/C [17] was 100 % of control and 95 % of control. For the same compound, the T/C [14] was 89 % of control.
In the case of `Nc1ccc2nnnn2n1`, the T/C [10] is reported as 100 % of control, the T/C [11] is reported as 98 % of control and the T/C [12] is reported as 98 % of control.
In the case of `CN(C)c1ccc(C(=C2C=CC(=[N+](C)C)C=C2)c2ccc(N(C)C)cc2)cc1` (tested in a mixture with another compound), the T/C (dose: 0.62 mg/kg/injection, schedule: Q01DX009 (ip), vehicle: saline with Tween-80) is reported as 122 % of control and the T/C (dose: 2.5 mg/kg/injection, schedule: Q01DX009 (ip), vehicle: saline with Tween-80) is reported as 120 % of control.
For `COc1ccc(C2C(C#N)C(=O)N3C(=O)C(NC(C)=O)=C(O)C23)cc1` (configuration not stated), the T/C (dose: 100.0 mg/kg/injection, schedule: Q01DX001 (ip), vehicle: saline) was 94 % of control, the T/C (dose: 200.0 mg/kg/injection, schedule: Q01DX001 (ip), vehicle: saline) was 95 % of control and the T/C (dose: 400.0 mg/kg/injection, schedule: Q01DX001 (ip), vehicle: saline) was 97 % of control.
In the case of `CC(=O)[O][Sn]([c]1ccccc1)([c]1ccccc1)[c]1ccccc1`, the T/C (dose: 0.25 mg/kg/injection, schedule: Q04DX003 (ip), vehicle: saline with Tween-80) is reported as 104 % of control, the T/C (dose: 0.5 mg/kg/injection, schedule: Q04DX003 (ip), vehicle: saline with Tween-80) is reported as 109 % of control and the T/C (dose: 125.0 micrograms/kg/injection, schedule: Q01DX009 (ip), vehicle: saline with Tween-80) is reported as 100 % of control. The T/C (dose: 250.0 micrograms/kg/injection, schedule: Q01DX009 (ip), vehicle: saline with Tween-80) was 109 % of control and the T/C (dose: 500.0 micrograms/kg/injection, schedule: Q01DX009 (ip), vehicle: saline with Tween-80) was 109 % of control.
`O=C(O)C(=O)O.OO.OO.OO.[Nb]` was tested, and the T/C [11] was 123 % of control and the T/C (dose: 100.0 mg/kg/injection, schedule: Q04DX003 (ip), vehicle: saline) was 100 % of control.
With `Cc1nsc(Br)c1[N+](=O)[O-]` the T/C [19] was 105 % of control, the T/C [10] was 107 % of control and the T/C [11] was 107 % of control. The T/C (dose: 100.0 mg/kg/injection, schedule: Q04DX003 (ip), vehicle: saline with Tween-80) was 103 % of control, the T/C [12] was 109 % of control and the T/C (dose: 200.0 mg/kg/injection, schedule: Q04DX003 (ip), vehicle: saline with Tween-80) was 108 % of control. For the same compound, the T/C (dose: 400.0 mg/kg/injection, schedule: Q04DX003 (ip), vehicle: saline with Tween-80) was 115 % of control.
`C=C(Cl)C(=NC(C)C)Nc1ccccc1C` was tested, and the T/C (dose: 0.79 mg/kg/injection, schedule: Q01DX005 (ip), vehicle: Klucel (hydroxypropylcellulose) (HPC)) was 112 % of control, the T/C (dose: 1.56 mg/kg/injection, schedule: Q01DX005 (ip), vehicle: Klucel (hydroxypropylcellulose) (HPC)) was 100 % of control and 107 % of control and the T/C (dose: 3.12 mg/kg/injection, schedule: Q01DX005 (ip), vehicle: Klucel (hydroxypropylcellulose) (HPC)) was 107 % of control and 110 % of control and 115 % of control. For the same compound, the T/C [3] was 118 % of control and 86 % of control and the T/C [4] was 102 % of control and 114 % of control.
With `O=[N+]([O-])c1ccc(Nc2ccc[n+]3c([O-])csc23)nc1` the T/C [10] was 98 % of control, the T/C [13] was 89 % of control and the T/C [11] was 102 % of control. For the same compound, the T/C [14] was 93 % of control.
In the case of `CCOC(=O)[n+]1ccc(-c2cc[n+](C(=O)OCC)cc2)cc1`, the T/C [18] is reported as 88 % of control and the T/C [19] is reported as 91 % of control.
